# What was measured:
# Elastin (ELN) gene = assay: Gene expression change by qPCR in EpiDerm-FT: ELN; assay type: cell-based, human; conditions: vs vehicle-treated tissues, GAPDH housekeeping
# Excerpt: (§1) The purpose of this study was to evaluate the hyaluronic acid (HA) expression change activity of RoC® HA Serum Capsules (i.e. Example 2.0), RoC® Retinol Serum Capsules (i.e. Example 1.0), commercially available HA Serum (1.5 wt. % HA) and commercially available Retinol Serum (0.3 wt. % retinol) compared to 0.15% Retinol-treated tissues in cultured human epidermal/dermal skin tissues (EpiDerm-FT™). HA levels from culture medium, tissue lysates, HA histology and gene expression related to dermal anti-aging effects were quantified using qPCR method after 24- and 72-hours incubation with test materials.
# [1] = tested on: cultured human epidermal/dermal skin tissues (EpiDerm-FT); assay: Alcian Blue histology of dermal layer, image analysis, EpiDerm-FT; assay type: cell-based; conditions: vs vehicle-only treated tissues
# Excerpt: as §1
# After incubations, tissues were fixed and subjected to the normal steps of tissue preparation for histological analysis: dehydration, paraffin embedding, sectioning and staining with Alcian Blue. Histological activity was analyzed using image analysis including blue-color deconvolution and luminosity per section area in dermal layer. The percent change effect of each treatment was calculated comparing the vehicle-only treated tissues group.
# [2] = tested on: Collagen type-III (COL3A1) gene; assay: Gene expression change by qPCR in EpiDerm-FT: COL3A1; assay type: cell-based, human; conditions: vs vehicle-treated tissues, GAPDH housekeeping
# Excerpt: as §1
# [3] = tested on: Collagen type-IV (COL4A1) gene; assay: Gene expression change by qPCR in EpiDerm-FT: COL4A1; assay type: cell-based, human; conditions: vs vehicle-treated tissues, GAPDH housekeeping
# Excerpt: as §1
# [4] = tested on: Hyaluronic acid synthase-2 (HAS2) gene; assay: Gene expression change by qPCR in EpiDerm-FT: HAS2; assay type: cell-based, human; conditions: vs vehicle-treated tissues, GAPDH housekeeping
# Excerpt: as §1
# Fibronectin (FN1) gene = assay: Gene expression change by qPCR in EpiDerm-FT: FN1; assay type: cell-based, human; conditions: vs vehicle-treated tissues, GAPDH housekeeping
# Excerpt: as §1
# [5] = tested on: Collagen type-I (COL1A1) gene; assay: Gene expression change by qPCR in EpiDerm-FT: COL1A1; assay type: cell-based, human; conditions: vs vehicle-treated tissues, GAPDH housekeeping
# Excerpt: as §1
# [6] = tested on: cultured human epidermal/dermal skin tissues (EpiDerm-FT); assay: Hyaluronic acid levels by HA ELISA in culture medium and tissue lysates of EpiDerm-FT; assay type: cell-based; conditions: vs vehicle-treated tissues
# Excerpt: as §1
# [7] = tested on: Hyaluronic acid synthase-1 (HAS1) gene; assay: Gene expression change by qPCR in EpiDerm-FT: HAS1; assay type: cell-based, human; conditions: vs vehicle-treated tissues, GAPDH housekeeping
# Excerpt: as §1
# [8] = 24 hr, n = 3, listed as 0.15% Retinol formulated in DMSO
smiles,measurement,setting,value
"CC1=C(/C=C/C(C)=C/C=C/C(C)=C/CO)C(C)(C)CCC1 [0.15% Retinol in DMSO, Retinol]","Gene Expression change, ELN",Elastin (ELN) gene; 24 hr,−21%
same,"Gene Expression change, ELN",Elastin (ELN) gene; 72 hr,+25%
same,"Histology, Alcian Blue in Dermis staining change",[1]; 24 hr,+81%
same,"Histology, Alcian Blue in Dermis staining change",[1]; 72 hr,−9%
same,"Gene Expression change, COL3A1",[2]; 24 hr,−22%
same,"Gene Expression change, COL3A1",[2]; 72 hr,+8%
same,"Gene Expression change, COL4A1",[3]; 24 hr,−30%
same,"Gene Expression change, COL4A1",[3]; 72 hr,+9%
same,"Gene Expression change, HAS2",[4]; 24 hr,−11%
same,"Gene Expression change, HAS2",[4]; 72 hr,−18%
same,"Gene Expression change, FN1",Fibronectin (FN1) gene; 24 hr,−16%
same,"Gene Expression change, FN1",Fibronectin (FN1) gene; 72 hr,+45%
same,"Gene Expression change, FN1","Fibronectin (FN1) gene; 72 hr, listed as 0.15% Retinol formulated in DMSO",45%
same,"Gene Expression change, COL1A1",[5]; 24 hr,−22%
same,"Gene Expression change, COL1A1",[5]; 72 hr,+18%
same,"Hyaluronic Acid (HA) levels change, Culture medium","[6]; 24 hr, n = 3",+34%
same,"Hyaluronic Acid (HA) levels change, Tissue lysates","[6]; 24 hr, n = 3",+52%
same,"Hyaluronic Acid (HA) levels change, Culture medium",[6]; [8],34%
same,"Hyaluronic Acid (HA) levels change, Tissue lysates",[6]; [8],52%
same,"Hyaluronic Acid (HA) levels change, Culture medium","[6]; 72 hr, n = 3",+25%
same,"Hyaluronic Acid (HA) levels change, Tissue lysates","[6]; 72 hr, n = 3",+49%
same,"Gene Expression change, HAS1",[7]; 24 hr,−52%
same,"Gene Expression change, HAS1",[7]; 72 hr,−29%
